Converted amounts (≈) assume the structure as drawn. “Also recorded” adds a separate entry of the source.
Key:
[1] = In vivo neuropharmacokinetic study, plasma and brain, intraperitoneal administration; set-up: species or system Sprague Dawley rats; conditions: rat; for availability in the brain (AUC0–36) higher after nanoemulsion compared to the solution: intraperitoneal administration; for AUC 0-36: brain
Description: The neuropharmacokinetic study was performed after intraperitoneal administration of the optimized nanoemulsion (NE4) or a 2 mg/mL GL-II-73 solution (solvent consisting of 14% (w/v) propylene glycol and 1% (w/v) polysorbate 80 in ultrapure water). Female Sprague Dawley rats, approximately two months old and weighing 160–200 g, were housed four per cage. The animal room was kept at a temperature of 22 ± 1 °C and a relative humidity of 40–70%. The alternation of light and darkness took place in a 12 h rhythm (light at 6:00 a.m.) with an illumination of 120 lx.
The test animals were divided into two groups of 27 rats each (3 animals per time point). One group received the GL-II-73 solution, the other group the GL-II-73 nanoemulsion, each at a dose of 10 mg/kg. At predefined intervals (5 min, 15 min, 30 min, 1 h, 2 h, 4 h, 8 h, 16 h, and 36 h), the animals were anesthetized with ketamine hydrochloride 90 mg/kg (Ketamidor, Richter Pharma AG, Vienna, Austria) and blood and brain samples were taken. Blood was collected by cardiac puncture with heparinized syringes and centrifuged at 1000× g for 10 min (MiniSpin® plus centrifuge, Eppendorf, Hamburg, Germany) to separate plasma. The isolated brains were weighed and homogenized in 1 mL methanol using an ultrasonic probe. The homogenized brain samples were subsequently centrifuged at 3400× g for 20 min to collect the supernatants. Plasma and the supernatants of the brain homogenates were further purified by solid phase extraction using Oasis HLB cartridges (Waters Corporation, Milford, MA, USA). The cartridges were preconditioned with methanol and then with water prior to application of the sample and internal standard. […] The concentration of GL-II-73 and its metabolite MP-III-022 was quantified in the eluates by liquid chromatography–tandem mass spectrometry (LC-MS/MS).

[2] = Solubility of GL-II-73 in various media, shake flask method; type: physicochemical; conditions: thermodynamic from solid
Description: The solubility of GL-II-73 was investigated in various media using the shake flask method. In brief, GL-II-73 was added in excess and mixed overnight on the vortex, followed by centrifugation to remove any excess of undissolved drug. The supernatants were then diluted in methanol and GL-II-73 content was determined by the LC/MS-MS method.
A liquid chromatographic system, the Accela 1000 (Thermo Fisher Scientific, San Jose, CA, USA), which includes a quaternary pump and an autosampler, was used for chromatographic analyses. All runs were performed with an XTERRA® MS C18 column (150 mm × 2.1 mm, 3.5 µm; Waters, Dublin, Ireland) maintained at 25 °C. Samples were stored in the autosampler temperature-controlled compartment at 8 °C. Isocratic elution was performed with a mixture of acetonitrile and 0.1% aqueous formic acid (60:40, v/v) at a flow rate of 300 µL/min. The total analysis time was 4.5 min. Mass spectrometric analyses were performed using a TSQ Quantum Access MAX (Thermo Fisher Scientific, Waltham, MA, USA) triple-quadrupole spectrometer equipped with a heated electrospray ionization (HESI) source. Operating conditions of the MS were optimized as follows: the spray voltage was set to 4000 V, with a skimmer offset of 0 V; the evaporator and capillary temperatures were set to 350 °C and 300 °C, respectively; nitrogen was used as both the nebulizer and auxiliary gas, with flow rates of 50 and 10 arbitrary units, respectively; and the collision gas pressure in q2 was maintained at 1.4 mTorr of argon. Data acquisition was performed with Selected Reaction Monitoring (SRM) in positive scan mode. The [M + H]^+ transitions m/z of SRM were 387.2 → 342.2 (CE 21 V), 373.1 → 314.0 (CE 29 V), and 347.0 → 302.0 (CE 28 V) for GL-II-73, MP-III-022, and SHI-I-048A (as internal standard), respectively. The Thermo Xcalibur 2.1 software was used for data acquisition.

[3] = system: in vitro model of the blood–brain barrier based on human induced pluripotent stem cell-derived microvascular endothelial cells, astrocytes, and pericytes; test: In vitro BBB permeability test (iCell Blood-Brain Barrier Kit, tricellular model); type: in vitro ADME; conditions: Pe of nanoemulsion vs solution
Description: The iCell® Blood-Brain Barrier Kit (FUJIFILM Cellular Dynamics, Inc., Madison, WI, USA) contained the following: iCell Astrocytes, iCell BMEC (Brain Microvascular Enothelial Cells), iCell Pericytes, iCell Astrocytes & iCell Pericytes Medium, iCell BMEC Maintenance Medium, and iCell Plating Supplement 500×. […]
The iCell® Blood-Brain Barrier Kit (FUJIFILM Cellular Dynamics, Madison, WI, USA) contained astrocytes, pericytes, and brain microvascular endothelial cells. […] For comparison, the contribution of the carrier itself was evaluated using a GL-II-73 solution in ultrapure water.
The transendothelial electrical resistance (TEER) parameter was used to verify the integrity of the barrier. […] The measured TEER values were corrected with TEER values from wells with empty filters and the medium. The final TEER values (Ω × cm^2) were calculated by adjusting the corrected TEER values to the filter surface. […] For this purpose, 100 µL was taken from the basolateral side (containing 1 mL iCell Maintenance Medium) to be analyzed by LC/MS-MS. […]
The Pe parameter (permeability coefficient; cm/min) was calculated as described earlier [19, 20] and used to evaluate the rate and the effectiveness of GL-II-73 transport through the BBB. […]
The Pe value was determined by dividing the Pse values by the surface area of the membrane of the insert (cm^2).

Compound | availability in the brain (AUC0–36) higher after nanoemulsion compared to the solution [1] | sum of brain AUC0-36 values for the parent molecule and its metabolite, nanoformulation compared to the solution ([1]; systemic administration) | solubility ([2]; MCT, oil or lipid) | solubility ([2]; aqueous buffer, Phosphate buffer (pH 7.4)) | solubility ([2]; benzyl alcohol, organic solvent or mixture) | solubility ([2]; castor oil, oil or lipid) | solubility ([2]; fish oil, oil or lipid) | solubility ([2]; isopropanol, organic solvent or mixture) | solubility ([2]; methanol, organic solvent or mixture) | solubility ([2]; simulated gastric fluid, 0.1 M HCl (pH 1.2)) | solubility ([2]; soybean oil, oil or lipid) | solubility ([2]; Water (pH 5.2)) | Permeability of GL-II-73 through the BBB, nanoemulsion relative to solution [3] | AUC 0-36 ([1]; metabolite MP-III-022 after 10 mg/kg GL-II-73 nanoemulsion NE4 i.p.) | AUC 0-36 ([1]; metabolite MP-III-022 after 10 mg/kg GL-II-73 solution i.p.)
C#Cc1ccc2c(c1)C(c1ccccc1F)=N[C@H](C)c1c(C(=O)N(C)C)ncn1-2 [GL-II-73] | 24% | one-third higher | 4.49 ± 0.148 mg/mL (≈ 11.6 mM) | 0.951 ± 0.0414 mg/mL (≈ 2.46 mM) | > 534 mg/mL | 2.82 ± 0.184 mg/mL (≈ 7.3 mM) | 2.4 ± 0.331 mg/mL (≈ 6.2 mM) | 131 mg/mL (≈ 339 mM) | > 1470 mg/mL | 5.37 ± 0.195 mg/mL (≈ 13.9 mM) | 3.06 ± 0.137 mg/mL (≈ 7.91 mM) | 1 ± 0.0399 mg/mL (≈ 2.59 mM) | twice as high; also recorded: more than twofold higher |  | 
C#Cc1ccc2c(c1)C(c1ccccc1F)=N[C@H](C)c1c(C(=O)NC)ncn1-2 [MP-III-022] | 61% |  |  |  |  |  |  |  |  |  |  |  |  | 167.36 ± 70.56 ng·h/g | 103.75 ± 2.05 ng·h/g

Source: paper PMC11944986, “Parenteral Nanoemulsion for Optimized Delivery of GL-II-73 to the Brain—Comparative In Vitro Blood–Brain Barrier and In Vivo Neuropharmacokinetic Evaluation” (Pharmaceutics, 2025)
